Test results from patent US8476197B2, “Aminopropenoates as fungicides” (priority 2009, dated 2013).
Marks after values point to notes of the source that are not given here.

settings: pH 2.3

Row | Structure (SMILES) | Log P
1 | CC(C)C(C)NC(=C(C#N)C(=O)NC1CC1)c1cccnc1Cl (stereo not drawn) [Compound 1451] | 2.74
2 | CC(C)C(C)NC(=C(C#N)C(=O)NC1CSC1)c1cccnc1Cl (stereo not drawn) [Compound 1452] | 3.22^[c]; 3.22^[b]
3 | CC(C)C(C)NC(=C(C#N)C(=O)NC1CCC1)c1cccnc1Cl (stereo not drawn) [Compound 1453] | 3.44^[c]; 3.44^[b]
4 | CCONC(=O)C(C#N)=C(NC(C)C(C)C)c1cccnc1Cl (stereo not drawn) [Compound 1454] | 2.44^[c]; 2.44^[b]
5 | CC(C)C(C)NC(=C(C#N)C(=O)NC1COC1)c1cccnc1Cl (stereo not drawn) [Compound 1455] | 2.24
6 | CC(C)C(C)NC(=C(C#N)C(=O)NC1CC1F)c1cccnc1Cl (stereo not drawn) [Compound 1456] | 2.83^[c]; 2.83^[b]
7 | CCOC(=O)C(C#N)=C(NC(C)C(C)C)c1cccnc1-c1ccc(C(F)(F)F)cc1 (stereo not drawn) [Compound 1457] | 4.23
8 | C=CCNC(=O)C(C#N)=C(NC(C)C(C)C)c1cccnc1Cl (stereo not drawn) [Compound 1458] | 3^[c]; 3^[b]
9 | C=CCONC(=O)C(C#N)=C(NC(C)C(C)C)c1cccnc1Cl (stereo not drawn) [Compound 1461] | 2.66
10 | CC(C)C(C)NC(=C(C#N)C(=O)NC1CS(=O)(=O)C1)c1cccnc1Cl (stereo not drawn) [Compound 1469] | 2.28
11 | CCOC(=O)C(C#N)=C(NC(C)C(C)C)c1cccnc1-c1ccc(OC)cc1 (stereo not drawn) [Compound 1472] | 3.54
12 | CCOC(=O)C(C#N)=C(NC(C)C(C)C)c1cccnc1 (stereo not drawn) [Compound 1504] | 2.61
13 | CCOC(=O)C(C#N)=C(NC(C)C(C)C)c1cccnc1-c1cccs1 (stereo not drawn) [Compound 1505] | 3.7^[c]; 3.7^[b]
14 | CCOC(=O)C(C#N)=C(NC(C)C(C)C)c1cccnc1-c1ccsc1 (stereo not drawn) [Compound 1519] | 3.55

same assay, conditions: pH 2.7

Row | Structure (SMILES) | Log P
15 | CCOC(=O)C(C#N)=C(NCC1(C)COC1)c1cccnc1Cl [Compound 1429] | 2.11^[a]
16 | CC#CC1(NC(=C(C#N)C(=O)OCC)c2cccnc2Cl)CCCCC1 [Compound 1430] | 4.06^[a]
17 | CCOCC(NC(=C(C#N)C(=O)OCC)c1cccnc1Cl)C(C)C (stereo not drawn) [Compound 1431] | 3.69^[a]
18 | CCOC(=O)C(C#N)=C(NC1CCCC1OC)c1cccnc1Cl (stereo not drawn) [Compound 1432] | 2.96^[a]
19 | CCCC(CC)NC(=C(C#N)C(=O)OCC)c1cccnc1Cl (stereo not drawn) [Compound 1434] | 3.8^[a]
20 | CCOC(=O)C(C#N)=C(NC1CCc2cccnc21)c1cccnc1Cl (stereo not drawn) [Compound 1436] | 2.4^[a]
21 | CCOC(=O)C(C#N)=C(NC(C)c1ccc(Cl)nc1)c1cccnc1Cl (stereo not drawn) [Compound 1437] | 2.8^[a]
22 | CCOC(=O)C(C#N)=C(NC(C)c1cccc(OC)n1)c1cccnc1Cl (stereo not drawn) [Compound 1438] | 3.5^[a]
23 | CCOC(=O)C(C#N)=C(NC(C)c1cccc(Cl)n1)c1cccnc1Cl (stereo not drawn) [Compound 1439] | 3.2^[a]
24 | CCOC(=O)C(C#N)=C(NC(C)c1cccc(C)n1)c1cccnc1Cl (stereo not drawn) [Compound 1440] | 2.56^[a]
25 | CCOC(=O)C(C#N)=C(NC(C)c1ccc2ccccc2n1)c1cccnc1Cl (stereo not drawn) [Compound 1441] | 3.37^[a]
26 | CCOC(=O)C(C#N)=C(NC(C)c1cc(C)ccn1)c1cccnc1Cl (stereo not drawn) [Compound 1442] | 2.6^[a]
27 | CCOC(=O)C(C#N)=C(NC(C)c1cnc(Cl)s1)c1cccnc1Cl (stereo not drawn) [Compound 1444] | 3.1^[a]
28 | CCOC(=O)C(C#N)=C(NC(C)c1ccc(Cl)cn1)c1cccnc1Cl (stereo not drawn) [Compound 1445] | 3.3^[a]
29 | CCOC(=O)C(C#N)=C(NC(C)c1cc(Cl)cc(C)n1)c1cccnc1Cl (stereo not drawn) [Compound 1446] | 3.4^[a]
30 | CCOC(=O)C(C#N)=C(NC(C)c1csc(-c2ccccc2)n1)c1cccnc1Cl (stereo not drawn) [Compound 1447] | 4^[a]
31 | CCOC(=O)C(C#N)=C(NC(C)c1ncccc1SC)c1cccnc1Cl (stereo not drawn) [Compound 1448] | 3.1^[a]
32 | CCOC(=O)C(C#N)=C(NC(C)c1cc(Cl)ccn1)c1cccnc1Cl (stereo not drawn) [Compound 1449] | 3^[a]
33 | CCOC(=O)C(C#N)=C(NC(C)c1ccccn1)c1scnc1Cl (stereo not drawn) [Compound 1462] | 2.59^[a]
34 | CCOC(=O)C(C#N)=C(NC(C)c1nccs1)c1scnc1Cl (stereo not drawn) [Compound 1463] | 2.59^[a]
35 | CCOC(=O)C(C#N)=C(NC1CCC1)c1scnc1Cl [Compound 1465] | 3^[a]

Row | Structure (SMILES) | Log P
36 | CCOC(=O)C(C#N)=C(NC(C)C1CC1)c1scnc1Cl (stereo not drawn) [Compound 1466] | 2.02^[a]
37 | CCOC(=O)C(C#N)=C(NC(C)COC)c1scnc1Cl (stereo not drawn) [Compound 1467] | 2.61^[a]
38 | CCOC(=O)C(C#N)=C(NC(C)C(C)C)c1scnc1Cl (stereo not drawn) [Compound 1468] | 3.46^[a]
39 | CCSC(=O)C(C#N)=C(NC(C)C(C)C)c1cccnc1Cl (stereo not drawn) [Compound 1474] | 3.87^[a]
40 | CCOC(=O)C(C#N)=C(NC(C)C(=O)NC)c1scnc1Cl (stereo not drawn) [Compound 1476] | 1.81^[a]
41 | CCOC(=O)C(C#N)=C(NC(C)c1c(Cl)cccc1Cl)c1scnc1Cl (stereo not drawn) [Compound 1477] | 4^[a]
42 | CCOC(=O)C(C#N)=C(NCc1ccc(C)c(C)n1)c1scnc1Cl [Compound 1478] | 1.94^[a]
43 | CC(NC(=C(C#N)C(=O)O)c1cccnc1Cl)c1nccs1 (stereo not drawn) [Compound 1479] | 1.01^[a]
44 | CCOC(=O)C(C#N)=C(NC(C)C1CC1)c1cnn(C)c1Cl (stereo not drawn) [Compound 1482] | 2.98^[a]
45 | CCOC(=O)C(C#N)=C(NC(C)C(C)C)c1cnn(C)c1Cl (stereo not drawn) [Compound 1485] | 3.25^[a]
46 | CCOC(=O)C(C#N)=C(NC(C)COC)c1cnn(C)c1Cl (stereo not drawn) [Compound 1486] | 2.42^[a]
47 | CCOC(=O)C(C#N)=C(NC1CCC1)c1cnn(C)c1Cl [Compound 1487] | 2.82^[a]
48 | CCOC(=O)C(C#N)=C(NC(C)C(=O)NC)c1cnn(C)c1Cl (stereo not drawn) [Compound 1488] | 1.63^[a]
49 | CCSC(=O)C(C#N)=C(NC(C)c1nccs1)c1cccnc1Cl (stereo not drawn) [Compound 1489] | 2.9^[a]
50 | C=CCOC(=O)C(C#N)=C(NC(C)c1nccs1)c1cccnc1Cl (stereo not drawn) [Compound 1490] | 2.62^[a]
51 | CC(C)C(C)NC(=C(C#N)C(=O)N1CCCC1)c1cccnc1Cl (stereo not drawn) [Compound 1491] | 3.02^[a]
52 | COCCNC(=O)C(C#N)=C(NC(C)C(C)C)c1cccnc1Cl (stereo not drawn) [Compound 1492] | 2.73^[a]
53 | CC(C)C(C)NC(=C(C#N)C(=O)NC1CCCC1)c1cccnc1Cl (stereo not drawn) [Compound 1493] | 3.9^[a]
54 | CC(C)CNC(=O)C(C#N)=C(NC(C)C(C)C)c1cccnc1Cl (stereo not drawn) [Compound 1494] | 3.74^[a]
55 | CCOC(=O)C(C#N)=C(NC(C)C(C)C)c1ccnc2ccccc12 (stereo not drawn) [Compound 1496] | 3.29^[a]
56 | CCOC(=O)C(C#N)=C(NC1CCC1)c1ccnc2ccccc12 [Compound 1498] | 2.88^[a]

Row | Structure (SMILES) | Log P
57 | CCOC(=O)C(C#N)=C(NC(C)COC)c1ccnc2ccccc12 (stereo not drawn) [Compound 1499] | 2.5^[a]
58 | CCOC(=O)C(C#N)=C(NC(C)c1nccs1)c1cnn(C)c1Cl (stereo not drawn) [Compound 1501] | 2.42^[a]
59 | CCOC(=O)C(C#N)=C(NC(C)c1nccs1)c1ccnc2ccccc12 (stereo not drawn) [Compound 1502] | 2.5^[a]
60 | CCOC(=O)C(C#N)=C(NC(C)C(=O)NC)c1ccnc2ccccc12 (stereo not drawn) [Compound 1503] | 1.8^[a]
61 | CC(C)C(C)NC(=C(C#N)C(=O)N1CCSCC1)c1cccnc1Cl (stereo not drawn) [Compound 1507] | 3.27^[a]
62 | CC(C)C(C)NC(=C(C#N)C(=O)N1CCCCC1)c1cccnc1Cl (stereo not drawn) [Compound 1508] | 3.48^[a]
63 | CC(C)C(C)NC(=C(C#N)C(=O)N1CCSC1)c1cccnc1Cl (stereo not drawn) [Compound 1509] | 3.19^[a]
64 | CSCCNC(=O)C(C#N)=C(NC(C)C(C)C)c1cccnc1Cl (stereo not drawn) [Compound 1510] | 3.29^[a]
65 | CC(C)C(C)NC(=C(C#N)C(=O)NC1CCC1C)c1cccnc1Cl (stereo not drawn) [Compound 1511] | 4.01^[a]
66 | CC1CC(NC(=O)C(C#N)=C(NC(C)C(C)C)c2cccnc2Cl)C1 (stereo not drawn) [Compound 1512] | 4.01^[a]
67 | CC(C)C(C)NC(=C(C#N)C(=O)N(C)C1CC1)c1cccnc1Cl (stereo not drawn) [Compound 1513] | 3.02^[a]
68 | CCN(OC)C(=O)C(C#N)=C(NC(C)C(C)C)c1cccnc1Cl (stereo not drawn) [Compound 1514] | 3.15^[a]
69 | CC(C)C(C)NC(=C(C#N)C(=O)Nc1ccncc1)c1cccnc1Cl (stereo not drawn) [Compound 1515] | 1.58^[a]
70 | CC(C)C(C)NC(=C(C#N)C(=O)Nc1ccccn1)c1cccnc1Cl (stereo not drawn) [Compound 1516] | 3.21^[a]
71 | CC(C)C(C)NC(=C(C#N)C(=O)NCc1ccccn1)c1cccnc1Cl (stereo not drawn) [Compound 1517] | 1.94^[a]
72 | CC(C)C(C)NC(=C(C#N)C(=O)N1CCOCC1)c1cccnc1Cl (stereo not drawn) [Compound 1518] | 2.58^[a]
73 | CCOC(=O)C(C#N)=C(NC(C)c1ncc(C)s1)c1cccnc1Cl (stereo not drawn) [Compound 1520] | 2.92^[a]
74 | C#CC(NC(=C(C#N)C(=O)OCC)c1cccnc1Cl)C(C)C (stereo not drawn) [Compound 1521] | 3.37^[a]
75 | CCOC(=O)C(C#N)=C(NC(C)[Si](C)(C)C)c1cccnc1Cl (stereo not drawn) [Compound 1522] | 3.87^[a]
76 | CCOC(=O)C(C#N)=C(NC(C)c1c(Cl)cccc1Cl)c1cccnc1Cl (stereo not drawn) [Compound 1523] | 3.73^[a]
77 | CCOC(=O)C(C#N)=C(NC(C)c1csc(C)n1)c1cccnc1Cl (stereo not drawn) [Compound 1524] | 2.84^[a]

same assay, conditions: pH 7.5

Row | Structure (SMILES) | Log P
78 | CCOC(=O)C(C#N)=C(NC(C)C=NO)c1cccnc1Cl (stereo not drawn) [Compound 1443] | 1.78
79 | C=CCOC(=O)C(C#N)=C(NC(C)c1nccs1)c1ccc(Cl)nc1Cl (stereo not drawn) [Compound 1450] | 3.16
80 | CC(C)C(C)NC(=C(C#N)C(=O)NC1CC1)c1cccnc1Cl (stereo not drawn) [Compound 1451] | 2.76
81 | CC(C)C(C)NC(=C(C#N)C(=O)NC1CSC1)c1cccnc1Cl (stereo not drawn) [Compound 1452] | 3.22^[c]; 3.22^[b]
82 | CC(C)C(C)NC(=C(C#N)C(=O)NC1CCC1)c1cccnc1Cl (stereo not drawn) [Compound 1453] | 3.44^[c]; 3.44^[b]
83 | CCONC(=O)C(C#N)=C(NC(C)C(C)C)c1cccnc1Cl (stereo not drawn) [Compound 1454] | 2.44^[c]; 2.44^[b]
84 | CC(C)C(C)NC(=C(C#N)C(=O)NC1COC1)c1cccnc1Cl (stereo not drawn) [Compound 1455] | 2.26
85 | CC(C)C(C)NC(=C(C#N)C(=O)NC1CC1F)c1cccnc1Cl (stereo not drawn) [Compound 1456] | 2.83^[c]; 2.83^[b]
86 | CCOC(=O)C(C#N)=C(NC(C)C(C)C)c1cccnc1-c1ccc(C(F)(F)F)cc1 (stereo not drawn) [Compound 1457] | 4.25
87 | C=CCNC(=O)C(C#N)=C(NC(C)C(C)C)c1cccnc1Cl (stereo not drawn) [Compound 1458] | 3^[c]; 3^[b]
88 | CONC(=O)C(C#N)=C(NC(C)c1nccs1)c1ccc(Cl)nc1Cl (stereo not drawn) [Compound 1459] | 1.94
89 | CNC(=O)C(C#N)=C(NC(C)c1nccs1)c1ccc(Cl)nc1Cl (stereo not drawn) [Compound 1460] | 2.29
90 | C=CCONC(=O)C(C#N)=C(NC(C)C(C)C)c1cccnc1Cl (stereo not drawn) [Compound 1461] | 2.62
91 | CC(C)C(C)NC(=C(C#N)C(=O)NC1CS(=O)(=O)C1)c1cccnc1Cl (stereo not drawn) [Compound 1469] | 2.29
92 | CCNC(=O)C(C#N)=C(NC(C)c1nccs1)c1ccc(Cl)nc1Cl (stereo not drawn) [Compound 1471] | 2.65
93 | CCOC(=O)C(C#N)=C(NC(C)C(C)C)c1cccnc1-c1ccc(OC)cc1 (stereo not drawn) [Compound 1472] | 3.59
94 | CCOC(=O)C(C#N)=C(NC(C)C(C)C)c1cccnc1 (stereo not drawn) [Compound 1504] | 2.67
95 | CCOC(=O)C(C#N)=C(NC(C)C(C)C)c1cccnc1-c1cccs1 (stereo not drawn) [Compound 1505] | 3.7^[c]; 3.7^[b]
96 | CCOC(=O)C(C#N)=C(NC(C)C(C)C)c1cccnc1-c1ccsc1 (stereo not drawn) [Compound 1519] | 3.57
